Data reported in PubChem BioAssay AID1645868 (Buhrlage Lab, Dana-Farber Cancer Institute and Novartis …, 2021).
Activity calls are given as the source filed them.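 How the source made its calls: active means maximal percent inhibition of the deubiquitinase OTUD3 of at least 30% across the tested doses; inactive means the rest.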 Positions of bridges follow the written chain, without caps; N, C: chain ends. Residues, ends and D or L forms follow the SMILES beside them. ξ: configuration not given here. *: point of attachment. Pentadecanoyl(3ξ-OH,15-Gua) = N=C(N)NCCCCCCCCCCCCC(O)CC(=O)*

The compounds below were run against OTU domain-containing protein 3 (Homo sapiens) (UniProt Q5T2D3) (assay: Validation of screening hits, potency titration, in vitro enzymatic, OTU domain-containing protein 3 DUB inhibitors (AID 1645868)). Conditions: purified OTUD3, ubiquitin-rhodamine cleavage fluorescence, 2 h.
Sequence of OTU domain-containing protein 3 (Homo sapiens) (Q5T2D3 whole entry, looked up, the tested form may be a part): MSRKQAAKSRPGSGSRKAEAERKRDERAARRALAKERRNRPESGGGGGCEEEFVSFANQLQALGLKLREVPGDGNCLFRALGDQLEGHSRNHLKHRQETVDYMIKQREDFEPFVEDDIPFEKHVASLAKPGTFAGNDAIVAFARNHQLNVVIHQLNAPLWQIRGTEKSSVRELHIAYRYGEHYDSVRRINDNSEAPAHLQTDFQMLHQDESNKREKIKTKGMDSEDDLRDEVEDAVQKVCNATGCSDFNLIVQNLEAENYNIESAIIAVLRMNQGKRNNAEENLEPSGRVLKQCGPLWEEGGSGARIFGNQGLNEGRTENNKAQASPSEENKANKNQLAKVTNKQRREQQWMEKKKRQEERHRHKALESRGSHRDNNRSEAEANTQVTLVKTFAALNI
For Cc1cc(=O)c2c(O)oc(O)c3c(O)cc(=O)c1c32, the IC50 was 33.9 µM.
With CC1CCc2c(sc3ncnc(NC4CCN(CC(N)=O)CC4)c23)C1 (stereo unspecified) the IC50 was > 50 µM (inactive).
CCn1c(CNc2ccc(Cl)cc2)nnc1SCC(=O)Nc1ccccc1 was tested, and the IC50 was > 50 µM (inactive).
For CC1OC2CC(O)C1(O)C1=C2C(O)=C(C(N)=O)C(=N)C1=O (stereo unspecified), the IC50 was > 50 µM (inactive).
For O=C(/C=C/c1cnc2ccccc2c1)NCc1ccccc1, the IC50 was > 50 µM (inactive).
With CC(C)(C)C(=O)NC(c1ccccc1)c1nnc(N2CCOCC2)o1 (stereo unspecified) the IC50 was > 50 µM (inactive).
COc1ccc2nc(Nc3ncc4c(n3)CCCC4=O)nc(C)c2c1 was tested, and the IC50 was > 50 µM (inactive).
Cc1ccc2c(c1)[C@]1(C(=O)N2)[C@@H]2C(=O)N(c3cccc(C(F)(F)F)c3)C(=O)[C@@H]2C2CCCN21 (stereo partly specified) was tested, and the IC50 was > 50 µM (inactive).
Compound N#Cc1ccccc1Cn1c(=O)n(CCCCC(=O)NCCc2ccccc2)c(=O)c2ccccc21 has an IC50 of 23.7 µM.
With O=C(Cn1c(=O)n(Cc2ccc(F)cc2)c(=O)c2ncccc21)Nc1ccccc1 the IC50 was > 50 µM (inactive).
With C[C@@H](C(=O)NCc1ccc(F)cc1)N1C(=O)N2CCc3c([nH]c4ccccc34)[C@@]2(C)C1=O the IC50 was 24.1 µM.
CC(=O)[C@H]1c2c(c(O)c3c(O)cccc3c2-c2c3c(c(O)c4c(O)cccc24)C(=O)C[C@](C)(O)[C@H]3C(C)=O)C(=O)C[C@]1(C)O was tested, and the IC50 was > 50 µM (inactive).
For Oc1sc(C=Nc2cc(Cl)ccc2Cl)c2ccccc12, the IC50 was > 50 µM (inactive).
CCc1c(Cl)c(O)c(Cl)c(O)c1C(=O)O[C@H]1C(C)O[C@@H](OC/C2=C\C=C\CC(O)/C(C)=C/C(CC)C(O[C@@H]3OC(C)(C)[C@H](O)C(OC(=O)C(C)C)[C@@H]3O)/C(C)=C/C(C)=C/CC(C(C)O)OC2=O)[C@@H](OC)C1O (stereo partly specified) was tested, and the IC50 was > 50 µM (inactive).
Work on Cc1ccc(-c2c(C(=O)Nc3ccc(S(N)(=O)=O)cc3)oc(=O)c3ccccc23)cc1 yielded an IC50 of 35 µM.
For CC(C)(C)C(=O)C1C2C(=O)N(Cc3ccccc3)C(=O)C2C2c3ccccc3C=CN12 (stereo unspecified), the IC50 was > 50 µM (inactive).
With O=c1c(-c2nc(C3CC3)no2)cccn1Cc1c(F)cccc1Cl the IC50 was > 50 µM (inactive).
For Cc1ccc(C)c(NC(=O)CCc2nc(CSc3nc4ccccc4o3)no2)c1, the IC50 was 22 µM.
With O=S(=O)(c1cccc2cccnc12)N(CCc1ccccc1)C1CCN(CCc2ccc(Cl)cc2)CC1 the IC50 was > 50 µM (inactive).
Cc1c(OCC(=O)NCC(=O)N2CCC3(O)CCCCC3C2)ccc2c3c(c(=O)oc12)CCCC3 (stereo unspecified) was tested, and the IC50 was > 50 µM (inactive).
With Cc1ccccc1C(=O)OCCN1C(=O)c2cccc3c(N4CCCCC4)ccc(c23)C1=O the IC50 was > 50 µM (inactive).
Cc1cc(CSc2ncccc2C(=O)Nc2ccnn2Cc2cccnc2)no1 was tested, and the IC50 was > 50 µM (inactive).
With COc1ccc(/C=C\c2nccc3c2[nH]c2ccccc23)cc1 the IC50 was > 50 µM (inactive).
With Cc1ccccc1Cn1ccc(NC(=O)c2noc(C)c2[N+](=O)[O-])n1 the IC50 was > 50 µM (inactive).
CC1NC(=O)C(CC(N)=O)NC(=O)C(C(C)O)NC(=O)C(Cc2ccc(O)cc2)NC(=O)C(C(C)C)NC(=O)C(NC(=O)CC(O)CCCCCCCCCCCCN=C(N)N)C(C)OC1=O (stereo unspecified) ({Pentadecanoyl(3ξ-OH,15-Gua)}-TVYTNA; ester 1-C; configuration not given here) gave an IC50 of 36.6 µM.
With Cc1ccc(-c2ncc(C(=O)NCc3cccc(C)c3)c(-c3ccncc3)n2)cc1 the IC50 was > 50 µM (inactive).
Cc1cccc2sc(NC(=O)c3nnn(-c4ccc(F)cc4)n3)nc12 was tested, and the IC50 was > 50 µM (inactive).
For CCOc1ccccc1NC(=O)COc1cc(OC)ccc1C(=O)c1ccccc1, the IC50 was > 5 µM (inactive).
With CC1OC2CC(O)C1(O)C1=C2C(=O)c2c(O)c3c(c(O)c2C1=O)[C@H](C)O[C@H]1CC(=O)O[C@@H]31 (stereo partly specified) the IC50 was > 50 µM (inactive).
In the case of Cc1nc(-c2cccc(NC(=O)c3ccccc3Cl)c2)no1, the IC50 is reported as > 50 µM (inactive).
With Cc1noc(C)c1CN1CC[C@H]2O[C@H](C(=O)NCc3ccco3)CC[C@H]21 the IC50 was > 50 µM (inactive).
COc1ccc(NC(=O)CC(=O)c2ccc([N+](=O)[O-])cc2)cc1S(=O)(=O)Nc1ccc(Cl)cc1 gave an IC50 of 35.5 µM.
In the case of CC(C)CCN1C(=O)C2C(C(=O)Nc3ccc(Oc4ccccc4)cc3)C3C=CC2(O3)C1C(=O)NC1CCCCC1 (stereo unspecified), the IC50 is reported as 30.7 µM.
Cc1ccc2nc(CNC(=O)c3ccccc3-c3nc(-c4ccc(F)cc4)no3)[nH]c2c1 showed an IC50 of 39.9 µM.
COc1c2c(cc3cc(O)c4c(=O)cc(C)oc4c13)CCC2=O was tested, and the IC50 was > 50 µM (inactive).
For Cc1ccc(C)c(Nc2cc(C)nc3nc(-c4ccco4)nn23)c1, the IC50 was > 50 µM (inactive).
O=C(COc1ccc(Cl)cc1Cl)Nc1ccc2[nH]c(=O)[nH]c2c1 was tested, and the IC50 was 19.2 µM.
In the case of O=C(c1ccc(N2CCc3ccccc32)nn1)N1CCc2ccccc21, the IC50 is reported as > 50 µM (inactive).
For COc1ccc(CCC(=O)Nc2ncc(C)s2)cc1OC, the IC50 was > 50 µM (inactive).
With COc1ccc(C)cc1NC(=O)C(NS(=O)(=O)c1ccc2c(c1)CCN2C(C)=O)C(C)C (stereo unspecified) the IC50 was > 50 µM (inactive).
For O=C(Nc1ccc2c(c1)OCCO2)c1cc(CN2CCOCC2)on1, the IC50 was > 50 µM (inactive).
CN1CCN(c2ncnc3c2oc2ccc(Cl)cc23)CC1 was tested, and the IC50 was > 50 µM (inactive).
Cc1ccc(Nc2nc(O)c(CC(=O)Nc3ccccc3C)s2)cc1C was tested, and the IC50 was 20 µM.
With COc1ccc(-c2cc(C(C)=O)c(C)n2CCC(=O)Nc2ccc(OC)cc2OC)cc1 the IC50 was > 50 µM (inactive).
With CCN(CC)c1nc(F)c2c(c1F)S(=O)(=O)CCN2Cc1cccnc1 the IC50 was > 50 µM (inactive).
With COCCCN1CCS(=O)(=O)c2c(Cl)c(F)nc(Oc3ccc(C#N)cc3)c21 the IC50 was > 50 µM (inactive).
With CCOc1ccccc1C(=O)Nc1ccc2c(c1)Sc1ncccc1C(=O)N2C the IC50 was > 50 µM (inactive).
For COc1cc(Cl)ccc1Nc1ncc(C(=O)Nc2cc(OC)c(OC)c(OC)c2)c2ccccc12, the IC50 was 0.121 µM.
With O=C(NCc1ccc(F)cc1)N1CCC2(C1)Nc1cccnc1NC2=NCc1ccccc1 (stereo unspecified) the IC50 was > 50 µM (inactive).
With COc1ccc(C(=O)N2CCCC3(C2)Nc2cccnc2NC3=NC2CCCC2)cn1 (stereo unspecified) the IC50 was > 50 µM (inactive).
In the case of O=C(Nc1cc(F)c2nc(N3CCCC3)ccc2c1)c1ccco1, the IC50 is reported as > 50 µM (inactive).
CC(C)Cc1cc(-c2nnc3sc(-c4ccco4)nn23)n[nH]1 was tested, and the IC50 was > 50 µM (inactive).
For CC1=C2C(=NCCN1)C(=O)N(c1ccccc1)C2c1cccnc1 (stereo unspecified), the IC50 was > 50 µM (inactive).
N#Cc1ccccc1Cn1c(=O)n(Cc2ccco2)c(=O)c2ccccc21 was tested, and the IC50 was > 50 µM (inactive).
COc1ccc(-c2cc(-c3nnc(CSc4nc5ccccc5n4C)o3)c3ccccc3n2)cc1OC was tested, and the IC50 was > 50 µM (inactive).
In the case of O=S(=O)(c1cccc(F)c1)N1CCc2nc3ccccc3n2CC1, the IC50 is reported as 17.1 µM.
For Cc1ccc(S(=O)(=O)c2cnc(SCC(=O)Nc3ccc(Cl)cc3)nc2N)cc1C, the IC50 was > 50 µM (inactive).
With Cc1ccc(NC(=O)c2ccn(COc3ccc(F)cc3)n2)nc1 the IC50 was > 50 µM (inactive).
COc1cccc(N2C(=O)N(CC(=O)NCc3ccc(Cl)cc3)c3ccccc3S2(=O)=O)c1 showed an IC50 of 20 µM.
For COc1ccc(-c2cc(-c3ccccc3)nc(SCC(N)=O)c2C#N)cc1OC, the IC50 was 10.5 µM.
For COc1cc(C(=O)Nc2ccc(-c3csc(C)n3)cc2)cc(OC)c1OC, the IC50 was > 50 µM (inactive).
In the case of CNc1nc2c(c(=O)n1C)CN(C(=O)Nc1cccc3ccccc13)CC2, the IC50 is reported as > 50 µM (inactive).
For Cc1cc(O)c2c3c(c(O)c4c(c13)O[C@@H](C)C4(C)C)C(=O)C2=O, the IC50 was 31.9 µM.
In the case of O=C(CN1C(=O)C2CCCC2=Nc2ccccc21)Nc1cc(F)ccc1F (stereo unspecified), the IC50 is reported as 19 µM.
O=C(Nc1ccc(-c2cn3ccsc3n2)cc1)c1ccc(Cl)c([N+](=O)[O-])c1 was tested, and the IC50 was 5.01 µM.
c1ccc(-n2nnc(-c3noc(-c4cccnc4)n3)c2-c2ccncc2)cc1 gave an IC50 of 24 µM.
With Cn1ncc2c(=O)n(Cc3cccc(Cl)c3)cnc21 the IC50 was > 50 µM (inactive).
In the case of Cc1nnc(C(=O)Nc2ccc(C(=O)NCc3ccccc3C)cc2)s1, the IC50 is reported as 28.5 µM.
CCc1ccc(-n2c(=O)c3ccccc3n(CC(=O)NCCC3=CCCCC3)c2=O)cc1 gave an IC50 of 21.3 µM.
In the case of COc1cc(NC(=O)c2cc(CN3CCOCC3)on2)cc(OC)c1, the IC50 is reported as > 50 µM (inactive).
Work on COc1ccc(COc2ccc3c(C)c(CC(=O)N4CC[C@@]5(O)CCCC[C@H]5C4)c(=O)oc3c2)cc1 yielded an IC50 of 4.62 µM.
O=C(Cn1ncc2c(N3CCCCCC3)ncnc21)NCc1ccccc1 was tested, and the IC50 was > 50 µM (inactive).
COc1ccccc1-c1nc(Cn2nnc(C(=O)Nc3cc(C)cc(C)c3)c2N)c(C)o1 was tested, and the IC50 was > 50 µM (inactive).
For CC1OC(CC(=O)O)CC23OC12C(=O)c1c(O)cccc1C3=O (stereo unspecified), the IC50 was > 50 µM (inactive).
In the case of COc1cccc(C(=O)Oc2ccc3c(=O)c(-c4ccc(OC)c(OC)c4)coc3c2)c1, the IC50 is reported as > 50 µM (inactive).
For COc1ccccc1NC(=O)Cn1cc(C(=O)c2ccc(C)cc2)c(=O)c2ccccc21, the IC50 was 39.5 µM.
CCC(=O)Nc1ccc(-c2nc(Cn3cc(C)cn3)c(C)o2)cc1 was tested, and the IC50 was > 50 µM (inactive).
In the case of Cc1ccc(-c2nnc(-n3ncc(C#N)c3N)c3ccccc23)cc1C, the IC50 is reported as > 50 µM (inactive).
With CC1CCCCN1c1nc(F)c2c(c1F)S(=O)(=O)CCN2Cc1ccccc1 (stereo unspecified) the IC50 was > 50 µM (inactive).
For N#Cc1ccccc1COC(=O)c1ccc2ccccc2n1, the IC50 was > 50 µM (inactive).
With Cc1cccc(-c2noc(CCn3c(=O)[nH]c4ccccc4c3=O)n2)c1 the IC50 was > 50 µM (inactive).
For O=C(c1cc(Cl)ccc1Cl)N1CCN(c2ccc3nnc(-c4ccco4)n3n2)CC1, the IC50 was > 50 µM (inactive).
In the case of Cc1noc(-c2cc(=O)n(CC(=O)NCc3ccccc3)c3ccccc23)n1, the IC50 is reported as > 50 µM (inactive).
In the case of CCn1cc(-c2nc(-c3ccccn3)no2)c(=O)c2cc(F)ccc21, the IC50 is reported as > 50 µM (inactive).
With CC(=O)c1ccc(NC(=O)C2CCN(c3cncnc3N3CCCC3)CC2)cc1 the IC50 was > 50 µM (inactive).
For Cc1ccc(C2c3c(-c4ccccc4O)n[nH]c3C(=O)N2Cc2ccco2)cc1 (stereo unspecified), the IC50 was 30.4 µM.
Cc1cc(O)c(Oc2cc(C)cc(O)c2O)c(O)c1 was tested, and the IC50 was 16.8 µM.
For O=S(=O)(Cc1nnc(-c2ccccc2C(F)(F)F)o1)c1ccc(Cl)cc1, the IC50 was > 50 µM (inactive).
Cc1nc2nc(SCc3nc4ccccc4n3C)[nH]c2cc1Br was tested, and the IC50 was > 50 µM (inactive).
Cc1cc(N2CCOCC2)nc2ccc(NC(=O)CCC(=O)Nc3ccc(F)cc3)cc12 was tested, and the IC50 was > 50 µM (inactive).
With Cc1cc(=O)n(C)c2c(O)c3c(cc12)c(C)cc(=O)n3C the IC50 was > 50 µM (inactive).
